Experimental data from PubChem BioAssay AID256 (DTP/NCI, 2004).
“And” between values parts separate entries of the source, which are not always exact repeats. Equal entries are not always repeated. Toxic doses and inconclusive results are not listed.

Tested on: CD2F1 mice, L1210 leukemia ip, survival T/C
Assay: NCI In Vivo Anticancer Drug Screen. Data for tumor model L1210 Leukemia (intraperitoneal) in CD2F1 (CDF1) mice
Details: endpoint: mean survival time, higher = longer survival
Procedure, shortened: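 Activity against a transplanted murine tumor was judged by comparing the compound group with a vehicle group. The outcome in the treated animals was divided by that in the controls.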

O=C1c2ccccc2C(=O)c2c(NCCNCCO)ccc(NCCNCCO)c21
T/C (dose: 1.0 mg/kg/injection, schedule: Q01DX005 (iv), vehicle: clinical formulation): 104 % of control | T/C (dose: 2.0 mg/kg/injection, schedule: Q01DX005 (iv), vehicle: saline): 98 % of control | T/C (dose: 2.0 mg/kg/injection, schedule: Q01DX009 (ip), vehicle: saline): 153 % of control | T/C (dose: 2.5 mg/kg/injection, schedule: Q01DX009 (ip), vehicle: saline): 190 % of control | T/C (dose: 2.62 mg/kg/injection, schedule: Q01DX009 (ip), vehicle: saline): 156 % of control | T/C (dose: 4.0 mg/kg/injection, schedule: Q01DX005 (iv), vehicle: clinical formulation): 123 % of control | T/C (dose: 4.0 mg/kg/injection, schedule: Q01DX005 (oral), vehicle: acid diluted with saline): 102 % of control | T/C (dose: 4.0 mg/kg/injection, schedule: Q01DX009 (ip), vehicle: clinical formulation): 157 % of control | T/C (dose: 4.0 mg/kg/injection, schedule: Q01DX009 (ip), vehicle: saline): 271 % of control | T/C (dose: 4.0 mg/kg/injection, schedule: Q04DX003 (ip), vehicle: water): 284 % of control | T/C (dose: 5.0 mg/kg/injection, schedule: Q01DX009 (ip), vehicle: saline): 156 % of control and 186 % of control | T/C (dose: 5.25 mg/kg/injection, schedule: Q01DX009 (ip), vehicle: saline): 159 % of control | T/C (dose: 8.0 mg/kg/injection, schedule: Q01DX005 (iv), vehicle: clinical formulation): 120 % of control | T/C (dose: 8.0 mg/kg/injection, schedule: Q01DX005 (iv), vehicle: saline): 119 % of control | T/C (dose: 8.0 mg/kg/injection, schedule: Q01DX005 (oral), vehicle: acid diluted with saline): 98 % of control | T/C (dose: 8.0 mg/kg/injection, schedule: Q01DX005 (oral), vehicle: saline): 101 % of control | T/C (dose: 8.0 mg/kg/injection, schedule: Q01DX009 (ip), vehicle: clinical formulation): 346 % of control | T/C (dose: 8.0 mg/kg/injection, schedule: Q01DX009 (ip), vehicle: saline): 281 % of control | T/C (dose: 8.0 mg/kg/injection, schedule: Q01DX009 (ip), vehicle: water): 163 % of control and 166 % of control | T/C (dose: 8.0 mg/kg/injection, schedule: Q04DX003 (ip), vehicle: water): 261 % of control | T/C (dose: 10.0 mg/kg/injection, schedule: Q01DX009 (ip), vehicle: saline): 218 % of control and 219 % of control | T/C (dose: 10.5 mg/kg/injection, schedule: Q01DX009 (ip), vehicle: saline): 228 % of control | T/C (dose: 11.7 mg/kg/injection, schedule: Q01DX001 (iv), vehicle: saline): 98 % of control | T/C (dose: 16.0 mg/kg/injection, schedule: Q01DX005 (ip), vehicle: saline): 170 % of control | T/C (dose: 16.0 mg/kg/injection, schedule: Q01DX005 (iv), vehicle: clinical formulation): 164 % of control | T/C (dose: 16.0 mg/kg/injection, schedule: Q01DX005 (oral), vehicle: saline): 101 % of control | T/C (dose: 16.0 mg/kg/injection, schedule: Q01DX009 (ip), vehicle: clinical formulation): 461 % of control | T/C (dose: 16.0 mg/kg/injection, schedule: Q01DX009 (ip), vehicle: saline): 529 % of control | T/C (dose: 16.0 mg/kg/injection, schedule: Q01DX009 (ip), vehicle: water): 153 % of control and 183 % of control | T/C (dose: 19.4 mg/kg/injection, schedule: Q01DX001 (iv), vehicle: saline): 102 % of control | T/C (dose: 20.0 mg/kg/injection, schedule: Q01DX009 (ip), vehicle: saline): 158 % of control and 219 % of control | T/C (dose: 32.0 mg/kg/injection, schedule: Q01DX005 (ip), vehicle: saline): 263 % of control | T/C (dose: 32.0 mg/kg/injection, schedule: Q01DX005 (iv), vehicle: saline): 150 % of control | T/C (dose: 32.0 mg/kg/injection, schedule: Q01DX005 (oral), vehicle: acid diluted with saline): 98 % of control | T/C (dose: 32.0 mg/kg/injection, schedule: Q01DX005 (oral), vehicle: saline): 103 % of control | T/C (dose: 32.0 mg/kg/injection, schedule: Q01DX009 (ip), vehicle: clinical formulation): 96 % of control | T/C (dose: 32.0 mg/kg/injection, schedule: Q01DX009 (ip), vehicle: water): 92 % of control | T/C (dose: 32.0 mg/kg/injection, schedule: Q04DX003 (ip), vehicle: saline): 160 % of control | T/C (dose: 32.4 mg/kg/injection, schedule: Q01DX001 (ip), vehicle: saline): 158 % of control and 160 % of control | T/C (dose: 32.4 mg/kg/injection, schedule: Q01DX001 (iv), vehicle: saline): 117 % of control | T/C (dose: 40.0 mg/kg/injection, schedule: Q01DX009 (ip), vehicle: saline): 91 % of control and 96 % of control | T/C (dose: 42.0 mg/kg/injection, schedule: Q01DX009 (ip), vehicle: saline): 90 % of control | T/C (dose: 54.0 mg/kg/injection, schedule: Q01DX001 (ip), vehicle: saline): 150 % of control and 160 % of control | T/C (dose: 64.0 mg/kg/injection, schedule: Q01DX005 (ip), vehicle: saline): 89 % of control
